# Several values for one entry are separate records, joined by “and”; a condition that tells them apart may be missing. Equal entries are not always repeated. Where two headings read alike, the source gives them in different places.
# Experiments:
# [1] = biological target: T1, rat GPR14 (U-II receptor) (Rattus norvegicus, UniProt P49684); assay: Rat UII Calcium Mobilization FLIPR Assay; format: cell-based; settings: for inhibition at 10 µM / inhibition at 50 µM: CHO, 5 min, agonist-induced Ca2+ mobilization (FLIPR), CHO cells with rat UII receptor; for inhibition at 10 µM: 10 μM compound, read-out: % I @ 10; for inhibition at 50 µM: 50 μM compound, read-out: % I @ 50
# T1 construct: expressed in transfected cells
# T1 sequence (P49684 1-386): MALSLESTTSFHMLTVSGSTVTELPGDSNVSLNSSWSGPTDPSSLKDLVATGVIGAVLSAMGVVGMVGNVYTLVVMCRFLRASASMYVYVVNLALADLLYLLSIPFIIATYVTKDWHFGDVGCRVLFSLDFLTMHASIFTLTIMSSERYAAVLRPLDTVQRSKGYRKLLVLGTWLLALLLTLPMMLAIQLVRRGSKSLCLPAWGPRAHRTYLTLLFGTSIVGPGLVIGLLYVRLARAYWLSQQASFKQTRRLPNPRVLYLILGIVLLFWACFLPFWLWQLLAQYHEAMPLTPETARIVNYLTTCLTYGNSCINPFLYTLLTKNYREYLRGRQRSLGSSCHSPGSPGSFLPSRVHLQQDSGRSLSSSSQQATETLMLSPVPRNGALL
# Procedure, shortened: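 Fluorescent calcium signals were recorded at room temperature (23° C) by FLIPR. Stable rat U-II receptor CHO lines had been dye-loaded for 1 h at 37° C in pH 7.4 HBSS containing 20 mM HEPES, 0.1% BSA and 2.5 mM probenecid.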
# [2] = biological target: T2, endogenous human UII receptor (Homo sapiens, UniProt Q9UKP6); assay: Human Radioligand Binding Assay ((^125I)-U-II binding to human skeletal muscle myoblasts)
# T2 sequence (Q9UKP6 1-389): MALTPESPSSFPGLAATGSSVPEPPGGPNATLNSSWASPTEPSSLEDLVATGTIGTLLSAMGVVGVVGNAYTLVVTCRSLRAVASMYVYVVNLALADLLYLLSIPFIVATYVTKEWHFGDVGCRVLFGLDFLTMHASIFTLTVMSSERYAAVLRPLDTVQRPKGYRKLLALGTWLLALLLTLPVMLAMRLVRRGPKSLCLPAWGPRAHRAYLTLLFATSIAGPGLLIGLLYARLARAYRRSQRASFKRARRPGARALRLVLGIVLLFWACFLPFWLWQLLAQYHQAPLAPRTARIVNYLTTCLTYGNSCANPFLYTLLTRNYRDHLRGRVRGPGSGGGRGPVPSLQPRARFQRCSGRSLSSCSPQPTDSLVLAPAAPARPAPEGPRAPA
# [3] = Inhibition of Acetyl-cyclic[Cys-Phe-Trp-Lys-(2-Nal)-Cys]-NH2 induced Ca2+ mobilization (FLIPR) in CHO cells transfected with rat UII receptor, read-out: IC50
# [4] = Inhibition of human UII binding to human skeletal muscle myoblasts containing endogenous human UII receptor
# [5] = average value for the compound tested, read-out: Rat UII FLIPR Average IC50
Compound,inhibition at 10 µM [1] [%],inhibition at 50 µM [1] [%],"IC50 [1, 3]","Ki [2, 4] [µM]",Ki [2] [µM],"IC50 [1, 5] [µM]"
"COc1ccc(C(CCCNS(=O)(=O)c2cccs2)N2C(=O)c3cccc(N4CCN([C@H](C)c5ccccc5)CC4)c3C2=O)cc1OC (stereo partly drawn) [Cpd 68, thiophene-2-sulfonic acid (4-(3,4-dimethoxy-phenyl)-4-{1,3-dioxo-4-[4-(1R)-(1-phenyl-ethyl)-piperazin-1-yl]-1,3-dihydro-isoindol-2-yl}-butyl)-amide]",98,99,0.1 µM and 0.08 µM,0.076,–,–
"COc1ccc(CN2C(=O)c3cccc(C4=CCN(Cc5ccccc5)CC4)c3C2=O)cc1OC [Cpd 19, 4-(1-benzyl-1,2,3,6-tetrahydro-pyridin-4-yl)-2-(3,4-dimethoxy-benzyl)-isoindole-1,3-dione]",94,100,1.5 µM,–,5.2,–
"COc1ccc(CN2C(=O)c3cccc(N4CCN(Cc5ccccc5)CC4)c3C2=O)cc1OC [Cpd 5, 4-(4-benzyl-piperazin-1-yl)-2-(3,4-dimethoxy-benzyl)-isoindole-1,3-dione]",99,99,0.151 µM,–,1.5,–
"COc1ccc(CN2C(=O)c3cccc(N4CCN(Cc5ccsc5)CC4)c3C2=O)cc1OC [Cpd 83, 2-(3,4-dimethoxy-benzyl)-4-(4-thiophen-3-ylmethyl-piperazin-1-yl)-isoindole-1,3-dione]",–,–,–,–,1.6,0.23
"CCC(c1ccccc1)N1CCN(c2cccc3c2C(=O)N(Cc2ccc(OC)c(OC)c2)C3=O)CC1 (stereo not shown) [Cpd 13, 2-(3,4-dimethoxy-benzyl)-4-[4-(1-phenyl-propyl)-piperazin-1-yl]-isoindole-1,3-dione]",95,99,0.41 µM,–,4,–
"COc1ccc(CN2C(=O)c3cccc(C4CCN(Cc5ccccc5)CC4)c3C2=O)cc1OC [Cpd 76, 4-(1-benzyl-piperidin-4-yl)-2-(3,4-dimethoxy-benzyl)-isoindole-1,3-dione]",98,99,0.96 µM,–,1.5,–
"COc1ccc(C(CN)N2C(=O)c3cccc(N4CCN([C@H](C)c5ccccc5)CC4)c3C2=O)cc1OC (stereo partly drawn) [Cpd 64, 2-[2-amino-1-(3,4-dimethoxy-phenyl)-ethyl]-4-[4-(1R)-(1-phenyl-ethyl)-piperazin-1-yl]-isoindole-1,3-dione]",101,98,0.3 µM,–,0.7,–
"COc1ccc(CN2C(=O)c3cccc(N4CCN(Cc5ccccc5O)CC4)c3C2=O)cc1OC [Cpd 85, 2-(3,4-dimethoxy-benzyl)-4-[4-(2-hydroxy-benzyl)-piperazin-1-yl]-isoindole-1,3-dione]",–,–,–,–,3.6,2.2
"COc1ccc(C(CCCCNC(=O)OC(C)(C)C)N2C(=O)c3cccc(N4CCN([C@H](C)c5ccccc5)CC4)c3C2=O)cc1OC (stereo partly drawn) [Cpd 69, (5-(3,4-dimethoxy-phenyl)-5-{1,3-dioxo-4-[4-(1R)-(1-phenyl-ethyl)-piperazin-1-yl]-1,3-dihydro-isoindol-2-yl}-pentyl)-carbamic acid tert-butyl ester]",11,52,65 µM,–,> 10,–

# More lines, now with the values ahead:
inhibition at 10 µM [1] [%],inhibition at 50 µM [1] [%],"IC50 [1, 3]","Ki [2, 4] [µM]",Ki [2] [µM],"IC50 [1, 5] [µM]",Compound
–,–,–,–,0.13,0.064,"COc1ccc([C@@H](CCNC(=O)OCc2ccccc2)N2C(=O)c3cccc(N4CCN([C@H](C)c5ccccc5)CC4)c3C2=O)cc1OC [Cpd 216, (R)-(3-(3,4-dimethoxy-phenyl)-3-{1,3-dioxo-4-[4-(1R)-(1-phenyl-ethyl)-piperazin-1-yl]-1,3-dihydro-isoindol-2-yl}-propyl)-carbamic acid benzyl ester]"
–,–,–,–,> 0.3,0.12,"COc1ccc([C@@H](CCCNS(=O)(=O)c2cc(C)sc2C)N2C(=O)c3cccc(N4CCN([C@H](C)c5ccccc5)CC4)c3C2=O)cc1OC [Cpd 131, (R)-2,5-dimethyl-thiophene-3-sulfonic acid (4-(3,4-dimethoxy-phenyl)-4-{1,3-dioxo-4-[4-(1R)-(1-phenyl-ethyl)-piperazin-1-yl]-1,3-dihydro-isoindol-2-yl}-butyl)-amide]"
101,103,0.07 µM,0.31,–,–,"COc1ccc(C(C)N2C(=O)c3cccc(N4CCN([C@H](C)c5ccccc5)CC4)c3C2=O)cc1OC (stereo partly drawn) [Cpd 2, 2-[1-(3,4-dimethoxy-phenyl)-ethyl]-4-[4-(1R)-(1-phenyl-ethyl)-piperazin-1-yl]-isoindole-1,3-dione]"
99,99,0.046 µM and 0.084 µM,0.57,–,–,"COc1ccc(CN2C(=O)c3cccc(N4CCN([C@H](C)c5ccccc5)CC4)c3C2=O)cc1OC [Cpd 1, 2-(3,4-dimethoxy-benzyl)-4-[4-(1R)-(1-phenyl-ethyl)-piperazin-1-yl]-isoindole-1,3-dione]"
102,102,0.4 µM,–,2.8,–,"COc1ccc(C(CN(C)C)N2C(=O)c3cccc(N4CCN([C@H](C)c5ccccc5)CC4)c3C2=O)cc1OC (stereo partly drawn) [Cpd 63, 2-[1-(3,4-dimethoxy-phenyl)-2-dimethylamino-ethyl]-4-[4-(1R)-(1-phenyl-ethyl)-piperazin-1-yl]-isoindole-1,3-dione]"
–,–,–,–,> 0.3,0.054,"COc1ccc([C@@H](CCCNS(=O)(=O)c2sc(NC(C)=O)nc2C)N2C(=O)c3cccc(N4CCN([C@H](C)c5ccccc5)CC4)c3C2=O)cc1OC [Cpd 130, (R)-N-[5-(4-(3,4-dimethoxy-phenyl)-4-{1,3-dioxo-4-[4-(1R)-(1-phenyl-ethyl)-piperazin-1-yl]-1,3-dihydro-isoindol-2-yl}-butylsulfamoyl)-4-methyl-thiazol-2-yl]-acetamide]"
102,101,0.3 µM and 0.27 µM,–,5.4,–,"COc1ccc(C(CCCCN)N2C(=O)c3cccc(N4CCN([C@H](C)c5ccccc5)CC4)c3C2=O)cc1OC (stereo partly drawn) [Cpd 70, 2-[5-amino-1-(3,4-dimethoxy-phenyl)-pentyl]-4-[4-(1R)-(1-phenyl-ethyl)-piperazin-1-yl]-isoindole-1,3-dione]"
103,102,0.16 µM,–,1.2,–,"COc1ccc(CN2C(=O)c3cccc(N4CCN(C(C)c5ccccc5)CC4)c3C2=O)cc1OC (stereo not shown) [Cpd 6, 2-(3,4-dimethoxy-benzyl)-4-[4-(1-phenyl-ethyl)-piperazin-1-yl]-isoindole-1,3-dione]"
–,–,–,–,0.059,0.014,"COc1ccc([C@@H](CCCNS(=O)(=O)C2CCS(=O)(=O)C2)N2C(=O)c3cccc(N4CCN([C@H](C)c5ccccc5)CC4)c3C2=O)cc1OC (stereo partly drawn) [Cpd 133, (R)-1,1-dioxo-tetrahydro-1λ^6-thiophene-3-sulfonic acid (4-(3,4-dimethoxy-phenyl)-4-{1,3-dioxo-4-[4-(1R)-(1-phenyl-ethyl)-piperazin-1-yl]-1,3-dihydro-isoindol-2-yl}-butyl)-amide]"
101,97,0.2 µM,3.2,–,–,"COc1ccc(C(CCCN)N2C(=O)c3cccc(N4CCN([C@H](C)c5ccccc5)CC4)c3C2=O)cc1OC (stereo partly drawn) [Cpd 66, 2-[4-amino-1-(3,4-dimethoxy-phenyl)-butyl]-4-[4-(1R)-(1-phenyl-ethyl)-piperazin-1-yl]-isoindole-1,3-dione]"
